Measured values reported in patent US20130059783A1, “COMPOSITIONS AND METHODS FOR EXPANDING BFU-E CELLS” (priority 2010, published 2013).

Key:
[1] = test system: CFU-E cells; assay: Colony forming assays of sorted CFU-E fractions (Table S2); assay type: cell-based, mouse
Source text: Separation of BFU-E and CFU-E cells by expression of CD71, CD24a or both CD71 and CD24a. C-kit positive BFU-E and CFU-E cells were sorted from FLEP cells based on expression of CD71, CD24a or both CD71 and CD24a. In all experiments the BFU-E fraction was the subset of c-kit^positive FLEP cells with the 10% lowest expression of CD71 and/or CD24a, while the CFU-E fraction was the subset with 20% highest expression of CD71 and/or CD24a. Sorted BFU-E and CFU-E populations were subjected to colony forming assays under two different conditions.
The potential of the sorted cells to form large BFU-E, small BFU-E, CFU-G/M/Mk, and CFU-GEMM colonies (±standard deviation) was determined by a second assay in methyl cellulose containing 10U Epo, 20 nM IL-3, 20 nM IL-6 and 50 nM SCF per mL, and was scored at day 8-9. […] To determine the effect of DMOG, colony assays of sorted BFU-E (CD71 and CD24a^10% low) cells were also performed in the presence of 333 μM DMOG.
Colonies were scored after 3 days. […] The number of hemoglobinized early BFU-E and late BFU-E colonies was determined after 8-9 days following staining with 2,7-Diaminofluorene (Sigma Chemical, St. Louis, Mo.).

[2] = test system: BFU-E cells; assay: FACS analysis of c-kit expression of BFU-E cells in SFELE culture; assay type: cell-based, mouse; conditions: day 3 of culture, 100 nM Dex
Experimental: FIGS. 1A-1F. Glucocorticoids stimulate stress erythropoiesis by enhancing erythroblast output predominantly from BFU-E progenitors. […] Error bars show one standard deviation. […] Error bars show one standard deviation. […] Shown is the fraction of c-kit+ cells after 72 hours. […] Cell numbers in each clone were estimated under the microscope on Day 8. 80% of sorted BFU-E cells form more than 100 daughter cells in erythroid expansion culture.

[3] = CD24a 20% high cells, 100 nM Dex
[4] = CD71 20% high cells, 100 nM Dex
[5] = CD71 and CD24a 20% high cells (n = 1), line marked +
[6] = sorted CD71 20% high cells, with Dex

SMILES: C[C@@H]1C[C@H]2[C@@H]3CCC4=CC(=O)C=C[C@]4(C)[C@@]3(F)[C@@H](O)C[C@]2(C)[C@@]1(O)C(=O)CO [Dex, dexamethasone]
- CFU-G/M/Meg colonies [1, 3]: 0.3 (±0.3) colonies per 1000 plated cells
- GEMM colonies [1, 3]: 0 colonies per 1000 plated cells
- large BFU-E colonies [1, 3]: 0.4 (±2) colonies per 1000 plated cells
- small BFU-E colonies [1, 3]: 15 (±2) colonies per 1000 plated cells
- CFU-E colonies [1, 4]: 565 (±120) colonies per 1000 plated cells
- CFU-G/M/Meg colonies [1, 4]: 0 colonies per 1000 plated cells
- GEMM colonies [1, 4]: 0 colonies per 1000 plated cells
- large BFU-E colonies [1, 4]: 0 colonies per 1000 plated cells
- small BFU-E colonies [1, 4]: 17 (±31) colonies per 1000 plated cells
- CFU-E colonies [1, 5]: 526 colonies per 1000 plated cells
- CFU-G/M/Meg colonies [1, 5]: 0 colonies per 1000 plated cells
- GEMM colonies [1, 5]: 0 colonies per 1000 plated cells
- large BFU-E colonies [1, 5]: 1 colonies per 1000 plated cells
- small BFU-E colonies [1, 5]: 29 colonies per 1000 plated cells
- Cells forming early BFU-E-derived colonies [1, 6]: 0%
- Cells forming late BFU-E-derived colonies [1, 6]: 1.7%
- Cells forming single-CFU-E colonies [1, 6]: 57%
- Cells still expressing c-kit [2]: 55%
